Measured values as given in US6500842B1, “8-hydroxy-7-substituted quinolines as anti-viral agents” (Pharmacia & Upjohn Company, priority 1996, dated 2002).
Values joined by “and” are separate entries in the source; they are usually repeats but may differ in a detail not shown here. Equal values may be shown once. Read-outs that look alike come from different tables or passages of the source.

Legend:
HCMV polymerase = biological target: T1, HCMV polymerase (Human cytomegalovirus, UniProt P08546); test: HCMV polymerase assay (scintillation proximity assay); format: biochemical; settings: pol type CMV
T1 construct: made in house; host or cells: recombinant baculovirus-infected SF-9 cells
T1 sequence (P08546 whole entry): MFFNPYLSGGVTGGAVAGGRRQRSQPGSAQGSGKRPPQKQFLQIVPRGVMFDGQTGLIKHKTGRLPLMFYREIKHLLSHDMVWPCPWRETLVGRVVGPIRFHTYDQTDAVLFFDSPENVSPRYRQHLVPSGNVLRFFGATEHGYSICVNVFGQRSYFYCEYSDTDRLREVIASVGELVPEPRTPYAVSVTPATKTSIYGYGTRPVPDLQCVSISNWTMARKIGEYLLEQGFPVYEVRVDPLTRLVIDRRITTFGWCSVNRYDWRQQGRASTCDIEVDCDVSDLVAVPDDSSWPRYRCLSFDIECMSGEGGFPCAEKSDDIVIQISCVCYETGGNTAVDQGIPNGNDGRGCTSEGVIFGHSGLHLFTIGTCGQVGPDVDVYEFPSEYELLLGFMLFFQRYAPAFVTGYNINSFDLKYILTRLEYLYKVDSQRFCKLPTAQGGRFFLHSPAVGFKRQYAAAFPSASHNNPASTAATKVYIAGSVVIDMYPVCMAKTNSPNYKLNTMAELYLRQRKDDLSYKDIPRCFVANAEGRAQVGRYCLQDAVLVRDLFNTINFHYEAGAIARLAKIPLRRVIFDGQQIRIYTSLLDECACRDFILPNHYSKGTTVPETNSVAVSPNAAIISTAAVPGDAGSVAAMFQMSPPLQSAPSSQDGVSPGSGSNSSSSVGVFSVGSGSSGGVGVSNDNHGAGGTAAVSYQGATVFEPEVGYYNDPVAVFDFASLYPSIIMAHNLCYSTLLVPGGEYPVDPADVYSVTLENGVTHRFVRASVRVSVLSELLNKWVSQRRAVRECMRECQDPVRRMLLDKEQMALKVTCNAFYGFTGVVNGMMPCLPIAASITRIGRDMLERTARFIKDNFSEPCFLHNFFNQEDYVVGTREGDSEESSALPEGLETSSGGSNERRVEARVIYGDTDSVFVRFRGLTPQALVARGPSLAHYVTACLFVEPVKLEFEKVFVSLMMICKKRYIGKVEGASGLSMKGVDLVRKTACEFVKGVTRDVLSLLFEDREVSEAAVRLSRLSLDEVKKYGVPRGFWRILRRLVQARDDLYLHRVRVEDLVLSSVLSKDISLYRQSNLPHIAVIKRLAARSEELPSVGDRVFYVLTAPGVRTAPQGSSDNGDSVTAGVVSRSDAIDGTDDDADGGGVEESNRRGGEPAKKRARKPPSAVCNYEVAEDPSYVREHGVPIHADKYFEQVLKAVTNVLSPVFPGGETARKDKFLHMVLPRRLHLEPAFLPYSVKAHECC
Method in brief: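 Baculovirus/SF-9-expressed purified enzyme in HEPES pH 7.5, KCl, 4.5 mM MgCl2, BSA, with 90 nM ³H-dTTP, ± 2 mM CHAPS; started with 6 nM biotinylated poly(dA)-oligo(dT), 30 min, stopped with EDTA. Incorporation read by streptavidin SPA beads; IC50 by linear regression.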

[1] = Table 1, read-out: CMV pol Assay IC50

Row | SMILES | IC50 (HCMV polymerase; [1]) | melting point | IC50 (HCMV polymerase; Table 2, read-out: IC50) | IC50 (HCMV polymerase; Table 5, read-out: IC50)
1 | O=C(Nc1ccc(Cl)cc1)c1cc(Br)c2cccnc2c1O [Example 4, 5-Bromo-N-(4-chlorophenyl)-8-hydroxy-7-quinolinecarboxamide] | 3.9 µM and 3.1 µM and 5.1 µM | 213 to 215 °C | – | –
2 | O=C(NC1=NC(=O)C(c2ccc(Cl)cc2)S1)c1ccc2cccnc2c1O (centres unmarked) [Example 5, N-[5-(4-Chlorophenyl)-4,5-dihydro-4-oxo-2-thiazolyl]-8-hydroxy-7-quinolinecarboxamide] | 6.8 µM | 272 to 276 °C (dec.) | – | –
3 | O=C(Nc1ncc(-c2ccc(Br)s2)s1)c1ccc2cccnc2c1O [Example 7, N-[5-(5-Bromo-2-thienyl)-2-thiazolyl]-8-hydroxy-7-quinolinecarboxamide] | 6.9 µM | 279 to 281 °C (dec.) | – | –
4 | O=C(NC1=NC(=O)C(c2cccc(Cl)c2)S1)c1ccc2cccnc2c1O (centres unmarked) [Example 8, N-[5-(3-Chlorophenyl)-4,5-dihydro-4-oxo-2-thiazolyl]-8-hydroxy-7-quinolinecarboxamide] | 20.1 µM | 268 to 272 °C (dec.) | – | –
5 | O=C(NCc1ccc(Cl)cc1)c1cc(Br)c2cccnc2c1O [Example 9, 5-Bromo-N-[(4-chlorophenyl)methyl]-8-hydroxy-7-quinolinecarboxamide] | 2.5 µM | 148 to 151 °C | – | –
6 | Cc1ccc2ccc(C(=O)NCc3ccc(Cl)cc3)c(O)c2n1 [Example 10, N-[(4-Chlorophenyl)methyl]-8-hydroxy-2-methyl-7-quinolinecarboxamide] | 19 µM | 95 to 98 °C | – | –
7 | O=C(NCc1ccc(Cl)cc1)c1cc(Cl)c2cccnc2c1O [Example 11, 5-Chloro-N-[(4-chlorophenyl)methyl]-8-hydroxy-7-quinolinecarboxamide] | 1.3 µM | 163 to 166 °C | – | –
8 | O=C(NCc1ccc([N+](=O)[O-])cc1)c1ccc2cccnc2c1O [Example 12, 8-Hydroxy-N-[(4-nitrophenyl)methyl]-7-quinolinecarboxamide] | 15.9 µM | 210 to 212 °C | – | –
9 | O=C(Nc1nc2ccc(Cl)cc2s1)c1ccc2cccnc2c1O [Example 13, N-(6-Chloro-2-benzothiazolyl)-8-hydroxy-7-quinolinecarboxamide] | > 100 µM | > 320 °C | – | –
10 | O=C(Nc1ccc(Cl)cc1)c1cc(Cl)c2cccnc2c1O [Example 15, 5-Chloro-N-(4-chlorophenyl)-8-hydroxy-7-quinolinecarboxamide] | 1.6 µM | 214 to 216 °C | – | –
11 | O=C(NCc1ccc(Cl)cc1)c1cc(F)c2cccnc2c1O [Example 16, 5-Fluoro-N-[[4-chlorophenyl]methyl]-8-hydroxy-7-quinolinecarboxamide] | 5.8 µM | 184 to 185 °C | – | –
12 | Cc1ccc2c(Cl)cc(S(=O)(=O)NCc3ccc(Cl)cc3)c(O)c2n1 [Example 17, 5-Chloro-N-[(4-chlorophenyl)methyl]-8-hydroxy-2-methyl-7-quinolinesulfonamide] | – | 158 to 161 °C (dec.) | 11.3 µM | –
13 | O=S(=O)(NCc1ccc(Cl)cc1)c1cc(Cl)c2cccnc2c1O [Example 18, 5-Chloro-N-[(4-chlorophenyl)methyl]-8-hydroxy-7-quinoline-sulfonamide] | – | 189 to 190 °C (dec.) | 27.9 µM | –
14 | CC(C)(C)c1ccc2c(Cl)cc(S(=O)(=O)NCc3ccc(Cl)cc3)c(O)c2n1 [Example 19, 5-Chloro-N-[(4-chlorophenyl)methyl]-2-(1,1-dimethylethyl)-8-hydroxy-7-quinolinesulfonamide] | – | 162 to 163 °C (dec.) | 23.6 µM | –
15 | O=S(=O)(Nc1ccc(Cl)cc1)c1cc(Cl)c2cccnc2c1O [Example 20, 5-Chloro-N-(4-chlorophenyl)-8-hydroxy-7-quinoline-sulfonamide] | – | 97 °C (dec.) | 14.5 µM | –
16 | Br.O=S(=O)(NCCCc1ccccc1)c1cc(Cl)c2cccnc2c1O [Example 21, 5-Chloro-8-hydroxy-N-(3-phenylpropyl)-7-quinolinesulfonamide monohydrobromide] | – | 210 to 212 °C (dec.) | 7.5 µM and 12.6 µM | –
17 | O=S(=O)(NCCc1ccc(Cl)cc1)c1cc(Cl)c2cccnc2c1O [Example 23, 5-Chloro-N-[2-(4-chlorophenyl)ethyl]-8-hydroxy-7-quinoline-sulfonamide] | – | 192 to 194 °C | 2 µM and 3.1 µM | –
18 | Cc1ccc2c(Cl)cc(S(=O)(=O)NCCc3ccc(Cl)cc3Cl)c(O)c2n1 [Example 25, 5-Chloro-N-[2-(2,4-dichlorophenyl)ethyl]-8-hydroxy-2-methyl-7-quinolinesulfonamide] | – | 132 to 135 °C | 3.6 µM | –
19 | Cc1ccc2c(Cl)cc(S(=O)(=O)NCCSc3ccccc3)c(O)c2n1 [Example 26, 5-Chloro-8-hydroxy-2-methyl-N-[2-(phenylthio)ethyl]-7-quinolinesulfonamide] | – | 136 to 139 °C | 4.6 µM | –
20 | Cc1ccc2c(Cl)cc(S(=O)(=O)NCc3ccccc3)c(O)c2n1 [Example 27, 5-Chloro-8-hydroxy-2-methyl-N-(phenylmethyl)-7-quinoline-sulfonamide] | – | 113 to 114 °C | 14.8 µM | –
21 | Cc1ccc2c(Cl)cc(S(=O)(=O)Nc3ccc(Cl)cc3)c(O)c2n1 [Example 28, 5-Chloro-N-(4-chlorophenyl)-8-hydroxy-2-methyl-7-quinoline-sulfonamide] | – | 284 to 287 °C (dec.) | 5.5 µM | –
22 | CCCCCCCCNS(=O)(=O)c1cc(Cl)c2ccc(C)nc2c1O [Example 29, 5-Chloro-8-hydroxy-2-methyl-N-octyl-7-quinolinesulfonamide] | – | 85 to 100 °C | 18.3 µM and 40.1 µM | –
23 | Cc1ccc2c(Cl)cc(S(=O)(=O)NCc3cccc(Cl)c3)c(O)c2n1 [Example 33, 5-Chloro-N-[(3-chlorophenyl)methyl]-8-hydroxy-2-methyl-7-quinolinesulfonamide] | – | 52 to 54 °C | 12.8 µM | –
24 | O=C(NCc1ccc(Cl)cc1)c1ccc2c(O)cc(C(F)(F)F)nc2c1O [Example 46, N-[(4-Chlorophenyl)methyl]-4,8-dihydroxy-2-trifluoromethyl-7-quinolinecarboxamide] | – | 135 to 140 °C (dec.) | – | 23.3 µM
25 | COc1ccc(/C=C/c2ccc3ccc(C(=O)NCc4ccc(Cl)cc4)c(O)c3n2)cc1 [Example 47, N-[(4-Chlorophenyl)methyl]-8-hydroxy-2-[2-(4-methoxyphenyl)ethenyl]-7-quinolinecarboxamide] | – | 200 to 201 °C | – | 0.35 µM and < 0.3 µM
26 | CCCCCCCNC(=O)c1ccc2ccc(/C=C/c3ccc(OC)cc3)nc2c1O [Example 48, N-Heptyl-8-hydroxy-2-[2-(4-methoxyphenyl)ethenyl]-7-quinolinecarboxamide] | – | 115 to 116 °C | – | 0.5 µM and < 3.1 µM
27 | O=C(NCC(O)c1ccccc1)c1ccc2ccc(/C=C/c3ccccc3)nc2c1O (centres unmarked) [Example 50, 8-Hydroxy-N-(2-hydroxy-2-phenylethyl)-2-(2-phenylethenyl)-7-quinolinecarboxamide] | – | 83 to 86 °C | – | < 3.1 µM and 1.2 µM
28 | O=C(NCc1ccc(Cl)cc1)c1ccc2ccc(/C=C/c3ccccc3)nc2c1O [Example 51, N-[(4-Chlorophenyl)methyl]-8-hydroxy-2-(2-phenylethenyl)-7-quinolinecarboxamide] | – | 192 to 194 °C | – | < 3.1 µM and 0.17 µM
